Measurements: PMC7221733, “Synthetic Kavalactone Analogues with Increased Potency and Selective Anthelmintic Activity against Larvae of Haemonchus contortus In Vitro” (Molecules, 2020)
Read-outs that look alike come from different tables or passages of the source.

How the values were obtained:
[1] = tested on: Haemonchus contortus; assay: Larval development assay (xL3 to L4) of H. contortus in vitro; format: cell-based; conditions: for IC50: read-out: Inhibition of Larval Development in H. Contortus IC50 (µM) ± SEM; for Anthelmintic activity in the larval development assay (in words): dilution series commencing at 100 µM
Experimental: The Haecon-5 strain of H. contortus was produced in experimental sheep, according to animal ethics guidelines of the University of Melbourne, Australia (permit no.1413429). The feces were collected from the infected sheep and incubated at 27 °C for 1 week, allowing first-stage larvae to emerge and develop to third-stage larvae (L3s). L3s were collected and stored at 10 °C until used in experiments; xL3s were prepared by treating L3s with 0.15% v/v sodium hypochlorite (NaClO) and incubated for 20 min at 38 °C, and subsequently washed five times with sterile physiological saline (pH 7.0). These xL3s were immediately incubated at 38 °C in sterile Luria Bertani (LB) broth supplemented with 100 IU/ml of penicillin, 100 µg/ml of streptomycin, and […] of amphotericin B (fungizone, antibiotic—antimycotic; cat. no. 15240-062; Gibco, Thermo Fisher Scientific, Waltham, MA, USA); this supplemented medium was designated as LB*.
In our previous study, larval development-inhibition results guided the fractionation of the active extract from P. methysticum, and the findings were consistent with subsequent potency assessments of the purified kavalactones. Therefore, the developmental inhibition assay for H. contortus was used to determine the activity/potency of the kavalactone analogues synthesized in the present study. In brief, all synthesized compounds as well as monepantel (Zolvix, Elanco Animal Health, Australia) and moxidectin (Cydectin, Virbac, France) (two positive controls) were individually tested for inhibition of larval development in H. contortus using an 18-point, two-fold dilution series, commencing at 100 µM. Compound solutions (in dimethyl sulfoxide [DMSO] plus LB*) were prepared and added to 96-well flat bottom plates to achieve the desired final concentrations in a final volume of 100 µl, and xL3s (as described in Section 3.2) were dispensed into individual wells at a density of 300 worms per well (in 50 µl of LB*). Matched concentrations of DMSO (0.25% in LB*) were used as negative (untreated) controls. The plates were incubated (10% v/v CO2) at 38 °C for 7 days. Larvae in each well were fixed with 50 µl of 1% iodine at 7 days, and the number of xL3s that developed to L4s in each well was counted by light microscopic examination at 20× magnification. L4s were differentiated from xL3s by their well-developed mouth and pharynx characteristics. The assay was repeated three times on different days using three replicates in each assay. The half-maximum inhibitory concentration (IC50) of each compound was determined by fitting the log10-transformed concentration to a variable slope four-parameter model using the GraphPad Prism (v. 8.3.1) software (GraphPad Software Inc., San Diego, CA, USA).

[2] = tested on: HepG2 human hepatoma cells; assay: Cytotoxicity on HepG2 cells (CellTiter-Glo cell viability assay); format: cell-based; conditions: for EC50: Homo sapiens, read-out: HepG2 EC50
Experimental: Synthesized compounds were tested for their toxicity on HepG2 human hepatoma cells, as described previously. In brief, compounds were tested in a 10-point, two-fold dilution series, commencing at 40 µM. The cells were cultured in Dulbecco’s modified Eagle’s medium (DMEM) supplemented with 10% fetal bovine serum (FBS) and incubated at 37 °C with 5% v/v CO2. The cells were seeded into 384-well plates at a density of 1 × 10^3 per well and exposed to compounds for 48 h. The toxicity was determined by CellTiter-Glo® cell viability assay (Promega, USA), which assessed the number of viable cells based on the quantity of ATP present. Matched percentages of etoposide and DMSO were used as positive and negative (untreated) controls, respectively. The EC50 values were determined as described in Section 3.3, and the selectivity index was calculated by dividing the EC50 value for HepG2 cells by the IC50 value for H. contortus.

[3] = tested on: MCF10A, non-tumorigenic breast epithelial cells; design: method as in PMID 30739078; conditions: in vitro cell proliferation assay; cited from earlier work
[4] = tested on: Haemonchus contortus; design: method as in PMID 30739078; conditions: cited from earlier work; for Phenotype induced in treated larvae / IC50: previous study; for IC50: purchased / isolated kavalactones, read-out: IC50 for inhibition of larval (L4) development of H. contortus
[5] = Haemonchus contortus, 168 h, xL3 to L4 development, 7 days, synthesized compounds, mean ± SEM
[6] = xL3 to L4 development, 7 days, synthesized compounds, mean ± SEM
[7] = HepG2, 48 h exposure, CellTiter-Glo, highest concentration 40 µM

| Compound | IC50 [1, 5] | EC50 [2, 7] | further results |
| --- | --- | --- | --- |
| COc1cc(/C=C/c2ccccc2OC)oc(=O)c1 [Compound 14] | 61.9 µM | > 40 µM | IC50 [1, 6]: > 100 µM |
| COc1cc(/C=C/c2ccc(Cl)cc2)oc(=O)c1 [Compound 6] | 12.4 ± 3.5 µM | > 40 µM |  |
| C[C@](C#N)(COc1cc(C#N)ccc1C(F)(F)F)NC(=O)c1ccc(SC(F)(F)F)cc1 [Monepantel, monepantel, reference compound] | 0.07 ± 0.01 µM |  |  |
| COc1cc(/C=C/c2ccc(Oc3ccccc3)cc2)oc(=O)c1 [Compound 5] | 5.2 ± 2.2 µM | > 40 µM |  |
| COc1cc(/C=C/c2ccc(OC(F)(F)F)cc2)oc(=O)c1 [Compound 3] | 1.9 ± 0.1 µM | > 40 µM | Selectivity index (HepG2 EC50 / H. contortus IC50) ([2]; against H. contortus): > 20 fold |
| COc1cc(/C=C/c2ccc(C)cc2)oc(=O)c1 [Compound 7] | 12.6 ± 2.1 µM | > 40 µM |  |
| COc1cccc(/C=C/c2cc(OC)cc(=O)o2)c1 [Compound 15] | > 100 µM | > 40 µM | IC50 [1, 6]: 61.9 ± 7.3 µM |
| CO/N=C1\C[C@]2(C[C@@H]3C[C@@H](C/C=C(\C)C[C@@H](C)/C=C/C=C4\CO[C@@H]5[C@H](O)C(C)=C[C@@H](C(=O)O3)[C@]45O)O2)O[C@H](/C(C)=C/C(C)C)[C@H]1C [Moxidectin, moxidectin, reference compound] | 0.02 µM |  |  |
| COC(=O)c1ccc(/C=C/c2cc(OC)cc(=O)o2)cc1 [Compound 12] | > 100 µM | > 40 µM | Anthelmintic activity in the larval development assay (in words) [1]: inactive at the highest concentration tested |
| COc1cc(/C=C/c2ccccc2)oc(=O)c1 [Compound 1, desmethoxyyangonin] | 37.1 ± 3.1 µM | > 40 µM | Toxicity on MCF10A cells [3]: limited toxicity; Exposure time sufficient to induce the Evi phenotype ([4]; H. contortus): 30 h; Phenotype induced in treated larvae [4]: lethal ‘evisceration’ (Evi) phenotype; IC50 [4]: 31.7 µM |
| COc1cc(/C=C/c2cccc(C#N)c2)oc(=O)c1 [Compound 17] | > 100 µM | > 40 µM |  |
| COc1cc(/C=C/c2ccc(C(F)(F)F)cc2)oc(=O)c1 [Compound 8] | 10.3 ± 1.2 µM | > 40 µM |  |
| COc1cc(/C=C/c2ccc(N3CCNCC3)cc2)oc(=O)c1 [Compound 11] | > 100 µM | > 40 µM | Anthelmintic activity in the larval development assay (in words) [1]: inactive |
| COc1cc(/C=C/c2ccc3c(c2)OCO3)oc(=O)c1 [Compound 16] |  |  | IC50 ([1]; Haemonchus contortus, 168 h): > 100 µM; EC50 ([2]; HepG2, 48 h): > 40 µM |
| COc1cc(/C=C/c2ccc(OC(F)F)cc2)oc(=O)c1 [Compound 4] | 8.9 ± 0.3 µM | > 40 µM |  |
| CC(C)C[C@H](NC(=O)[C@H](Cc1ccccc1)NC(=O)c1cnccn1)B(O)O [Bortezomib, reference compound] |  | 0.01 µM |  |
| COc1cc(/C=C/c2ccc(N3CCOCC3)cc2)oc(=O)c1 [Compound 10] | 6.4 ± 0.2 µM | > 40 µM |  |
| COc1cc(/C=C/c2ccc(N(C)C)cc2)oc(=O)c1 [Compound 9] | > 50 µM | > 40 µM | Anthelmintic activity in the larval development assay (in words) [1]: inactive at the highest concentration tested |
| COc1cc(/C=C/c2ccc(C#N)cc2)oc(=O)c1 [Compound 13] | > 100 µM | > 40 µM | Anthelmintic activity in the larval development assay (in words) [1]: inactive at the highest concentration tested |
| COc1ccc(/C=C/c2cc(OC)cc(=O)o2)cc1 [Compound 2, yangonin] | 15 ± 3 µM | > 40 µM | Toxicity on MCF10A cells [3]: limited toxicity; Phenotype induced in treated larvae [4]: lethal ‘evisceration’ (Evi) phenotype; IC50 [4]: 23.7 µM |
| COc1cc(/C=C/c2ccc(OC)nc2)oc(=O)c1 [Compound 19] | > 100 µM | > 40 µM | Anthelmintic activity in the larval development assay (in words) [1]: inactive at the highest concentration tested |
| COC(=O)c1cccc(/C=C/c2cc(OC)cc(=O)o2)c1 [Compound 18] | > 100 µM | > 40 µM |  |
| COC1=CC(=O)O[C@@H](CCc2ccccc2)C1 [dihydrokavain, reference compound] |  |  | Toxicity on MCF10A cells [3]: limited toxicity; Phenotype induced in treated larvae [4]: lethal ‘evisceration’ (Evi) phenotype; IC50 [4]: 208 µM |
